Assay results from PMC4578723 (Biochemical and biophysical research communications, 2013).

Molecular target: PTEN (Homo sapiens, UniProt P60484)
Assay: absorbance […] nm, pNPP hydrolysis
Assay type: biochemical
Conditions: 100 mM pNPP; 25 °C; Tris-HCl pH 8.0

PTEN, sequence (P60484 2-403): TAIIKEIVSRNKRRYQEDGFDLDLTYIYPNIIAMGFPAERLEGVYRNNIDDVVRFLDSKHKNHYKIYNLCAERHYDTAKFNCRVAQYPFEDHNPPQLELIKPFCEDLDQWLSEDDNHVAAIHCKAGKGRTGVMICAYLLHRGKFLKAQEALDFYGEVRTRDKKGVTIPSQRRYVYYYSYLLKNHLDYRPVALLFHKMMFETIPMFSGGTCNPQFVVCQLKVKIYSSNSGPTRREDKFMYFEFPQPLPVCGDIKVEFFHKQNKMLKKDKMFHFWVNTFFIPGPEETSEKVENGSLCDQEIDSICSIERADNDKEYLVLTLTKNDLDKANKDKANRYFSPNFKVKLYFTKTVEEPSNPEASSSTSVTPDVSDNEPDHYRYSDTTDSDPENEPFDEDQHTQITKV

## O=[N+]([O-])c1ccc(OP(=O)(O)O)cc1 [pNPP]
  absorbance 405 nm, pNPP hydrolysis: in vitro activity and affinity for pNPP substrate are similar for both INPP4B and PTEN
